Data: the supplement of paper PMC10331698
± gives the standard deviation of the averaged measurements.

Assays:
Assay in all cases: level (log10 ratio to DMSO vehicle control); higher = higher biomarker level / cell amount than vehicle control
Settings in all cases: in DMSO
[1] = compound: Cn1cnc([N+](=O)[O-])c1Sc1ncnc2[nH]cnc12 [Azathioprine]
Description: (§1)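 BioMAP Diversity Plus panel of 12 human primary cell co-culture systems (3C, 4H, LPS, SAg, BT, BF4T, BE3C, CASM3C, HDF3CGF, KF3CT, MyoF, Mphg). Compounds were added 1 h before stimulation and left for 24 h (MyoF 48 h; BT 72 h for soluble read-outs or 6 d for IgG). Biomarkers were read by ELISA, cytotoxicity by SRB, PBMC viability and proliferation by Alamar Blue. Each well value was divided by the mean of 8 DMSO control wells on the same plate and log10 transformed; duplicate blinded samples were tested at 4 concentrations.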

[2] = compound: O=C(O)C(F)(F)C(F)(F)C(F)(F)C(F)(F)C(F)(F)C(F)(F)C(F)(F)C(F)(F)C(F)(F)C(F)(F)C(F)(F)C(F)(F)C(F)(F)F [Perfluorotetradecanoic acid]
Description: as §1

[3] = compound: O=C(O)C(F)(F)C(F)(F)C(F)(F)C(F)(F)C(F)(F)C(F)(F)C(F)(F)C(F)(F)C(F)(F)C(F)(F)C(F)(F)C(F)(F)F [Perfluorotridecanoic acid]
Description: as §1

[4] = compound: O=S(=O)(O)C(F)(F)C(F)(F)C(F)(F)C(F)(F)C(F)(F)C(F)(F)C(F)(F)C(F)(F)F [Potassium perfluorooctanesulfonate]
Description: as §1

[5] = compound: O=S(=O)(O)C(F)(F)C(F)(F)C(F)(F)C(F)(F)F [Perfluorobutanesulfonic acid]
Description: as §1

[6] = compound: OCC(F)(F)C(F)(F)C(F)(F)C(F)(F)C(F)(F)C(F)F [1H,1H,7H-Dodecafluoro-1-heptanol]
Description: as §1

Test System | level (log10) ([1]; 1400 nM) | level (log10) ([1]; 4200 nM) | level (log10) ([1]; 13000 nM) | level (log10) ([1]; 38000 nM) | level (log10) ([2]; 6700 nM) | level (log10) ([2]; 20000 nM) | level (log10) ([3]; 1500 nM) | level (log10) ([3]; 4400 nM) | level (log10) ([3]; 13000 nM) | level (log10) ([3]; 40000 nM) | level (log10) ([4]; 6700 nM) | level (log10) ([4]; 20000 nM) | level (log10) ([4]; 60000 nM) | level (log10) ([5]; 6700 nM) | level (log10) ([5]; 20000 nM) | level (log10) ([5]; 60000 nM) | level (log10) ([6]; 6700 nM) | level (log10) ([6]; 20000 nM) | level (log10) ([6]; 60000 nM)
BT:sIL-17F | -0.0825 ± 0.079 | -0.041 ± 0.12 | -0.092 ± 0.054 | -0.254 ± 0.025 | -0.019 ± 0.058 | -0.0085 ± 0.028 | -0.0115 ± 0.1 | -0.02 ± 0.048 | 0.0775 ± 0.067 | 0.004 ± 0.09 | -0.085 ± 0.037 | -0.06 ± 0.11 | -0.072 ± 0.037 | 0.008 ± 0.0057 | 0.0145 ± 0.04 | -0.0225 ± 0.0064 | -0.104 ± 0.2 | -0.0695 ± 0.07 | -0.061 ± 0.064
BT:sTNF-alpha | 0.0225 ± 0.22 | -0.168 ± 0.11 | -0.167 ± 0.017 | -0.782 ± 0.077 | 0.014 ± 0.11 | -0.082 ± 0.092 | 0.0475 ± 0.064 | 0.0075 ± 0.033 | -0.054 ± 0.096 | -0.05 ± 0.067 | 0.003 ± 0.076 | 0.0225 ± 0.069 | -0.039 ± 0.016 | 0.0295 ± 0.011 | 0.0515 ± 0.071 | 0.015 ± 0.011 | -0.01 ± 0.31 | 0.0815 ± 0.039 | -0.0155 ± 0.15
LPS:CCL2/MCP-1 | 0.019 ± 0.055 | 0.011 ± 0.0042 | 0.03 ± 0.023 | -0.01 ± 0.0014 | 0.013 ± 0.055 | 0.0055 ± 0.077 | 0.005 ± 0.071 | 0.0315 ± 0.032 | 0.0145 ± 0.0078 | 0.0155 ± 0.029 | 0.0025 ± 0.0021 | 0.007 ± 0.016 | 0.039 ± 0.0057 | -0.0285 ± 0.057 | -0.021 ± 0.027 | -0.035 ± 0.0014 | 0.002 ± 0.0014 | -0.0125 ± 0.0078 | -0.0005 ± 0.018
LPS:CD40 | -0.041 ± 0.03 | -0.04 ± 0.016 | -0.08 ± 0.047 | -0.148 ± 0.03 | 0.0005 ± 0.12 | 0 ± 0.11 | 0.015 ± 0.092 | -0.0215 ± 0.17 | -0.032 ± 0.11 | -0.03 ± 0.092 | -0.062 ± 0.052 | -0.055 ± 0.014 | -0.062 ± 0.016 | -0.0395 ± 0.00071 | -0.0375 ± 0.029 | -0.0555 ± 0.052 | -0.0085 ± 0.03 | 0.026 ± 0.023 | -0.013 ± 0.038
LPS:CD62E/E-Selectin | 0.0155 ± 0.0035 | 0.0075 ± 0.015 | 0.0145 ± 0.013 | -0.006 | -0.0035 ± 0.011 | 0.01 ± 0.04 | 0.004 ± 0.02 | 0.0025 ± 0.028 | -0.002 ± 0.0085 | -0.0065 ± 0.005 | 0.0005 ± 0.037 | 0.0035 ± 0.00071 | 0.0205 ± 0.00071 | 0.007 ± 0.0071 | 0.0255 ± 0.0092 | 0.028 ± 0.023 | 0.0045 ± 0.0064 | -0.005 ± 0.013 | -0.009 ± 0.014
LPS:CD69 | -0.0175 ± 0.00071 | -0.046 ± 0.0014 | -0.0345 ± 0.033 | -0.073 ± 0.04 | -0.012 ± 0.025 | -0.027 ± 0.068 | 0.002 ± 0.034 | -0.0545 ± 0.053 | -0.0455 ± 0.044 | -0.069 ± 0.025 | -0.0315 ± 0.012 | -0.046 ± 0.0057 | -0.0205 ± 0.039 | -0.0405 ± 0.061 | 0.0155 ± 0.05 | 0.0825 ± 0.023 | -0.002 ± 0.096 | -0.0005 ± 0.076 | 0.0005 ± 0.079
LPS:CD106/VCAM-1 | -0.0125 ± 0.03 | -0.0215 ± 0.028 | -0.0595 ± 0.028 | -0.155 ± 0.025 | -0.036 ± 0.033 | -0.0565 ± 0.039 | -0.004 ± 0.0014 | -0.0315 ± 0.054 | -0.029 ± 0.052 | -0.08 ± 0.0057 | 0.0025 ± 0.019 | -0.004 ± 0.016 | -0.0125 ± 0.04 | -0.0055 ± 0.012 | 0.0175 ± 0.011 | 0.03 ± 0.0014 | 0 ± 0.0042 | -0.0075 ± 0.00071 | -0.0065 ± 0.019
LPS:CD141/Thrombomodulin | 0.046 ± 0.061 | 0.04 ± 0.037 | 0.0455 ± 0.035 | -0.0055 ± 0.067 | 0.009 ± 0.1 | -0.002 ± 0.072 | 0.045 ± 0.016 | 0.0125 ± 0.0092 | 0.0335 ± 0.0035 | -0.001 ± 0.016 | -0.0225 ± 0.028 | -0.0215 ± 0.023 | -0.025 ± 0.044 | -0.048 ± 0.0085 | -0.0045 ± 0.015 | -0.024 ± 0.031 | 0.001 ± 0.028 | 0.0005 ± 0.037 | 0.0005 ± 0.042
LPS:CD142/Tissue Factor | 0.042 ± 0.028 | 0.014 ± 0.0042 | 0.0375 ± 0.0064 | -0.0085 ± 0.044 | 0.0225 ± 0.04 | 0.0025 ± 0.098 | 0.0325 ± 0.08 | -0.026 ± 0.058 | 0.0025 ± 0.069 | 0.0325 ± 0.019 | -0.0095 ± 0.019 | -0.004 ± 0.0028 | -0.002 | 0.016 ± 0.038 | -0.0155 ± 0.039 | -0.0175 ± 0.016 | -0.008 ± 0.0014 | -0.0175 ± 0.015 | 0.0065 ± 0.025
LPS:CXCL8/IL-8 | 0.035 ± 0.025 | 0.0065 ± 0.013 | 0.0085 ± 0.0092 | -0.049 ± 0.072 | 0.0125 ± 0.077 | 0.0255 ± 0.16 | -0.011 ± 0.041 | -0.058 ± 0.041 | -0.0065 ± 0.042 | 0.016 ± 0.11 | 0.0255 ± 0.067 | 0.0435 ± 0.0092 | 0.061 ± 0.05 | 0.0225 ± 0.019 | 0.0125 ± 0.021 | 0.0765 ± 0.00071 | 0.0055 ± 0.029 | 0.0005 ± 0.022 | 0.0025 ± 0.011
LPS:IL-1alpha | 0.0405 ± 0.067 | 0.04 ± 0.064 | 0.0165 ± 0.0064 | -0.0185 ± 0.00071 | -0.031 ± 0.071 | -0.045 ± 0.09 | 0.0655 ± 0.088 | -0.0155 ± 0.06 | 0.0405 ± 0.042 | 0.0445 ± 0.018 | -0.022 ± 0.0014 | -0.0195 ± 0.011 | -0.0145 ± 0.012 | -0.0445 ± 0.067 | -0.0235 ± 0.013 | -0.0265 ± 0.05 | -0.006 ± 0.0042 | -0.031 ± 0.02 | 0.0025 ± 0.046
LPS:M-CSF | -0.011 ± 0.025 | -0.024 ± 0.018 | -0.0475 ± 0.056 | -0.125 ± 0.0042 | -0.0435 ± 0.0021 | -0.0695 ± 0.037 | -0.006 ± 0.042 | -0.017 ± 0.047 | -0.0135 ± 0.019 | -0.568 ± 0.03 | -0.0215 ± 0.016 | 0 ± 0.024 | 0.008 ± 0.014 | 0.021 ± 0.016 | -0.0035 ± 0.00071 | 0.01 ± 0.014 | 0.0025 ± 0.00071 | 0.0075 ± 0.0035 | 0.01 ± 0.038
LPS:SRB | -0.002 ± 0.0099 | -0.0105 ± 0.0078 | -0.0215 ± 0.013 | -0.039 ± 0.014 | -0.011 ± 0.0042 | -0.0055 ± 0.018 | -0.003 ± 0.014 | -0.011 ± 0.0014 | -0.008 ± 0.011 | 0.006 ± 0.021 | -0.009 ± 0.018 | -0.007 ± 0.021 | -0.001 ± 0.0057 | 0.0065 ± 0.011 | 0.004 ± 0.0057 | 0.002 ± 0.0057 | -0.008 ± 0.0014 | -0.006 ± 0.0042 | -0.0015 ± 0.015
LPS:sPGE2 | -0.0075 ± 0.033 | 0.037 | -0.022 ± 0.018 | -0.0985 ± 0.03 | 0.0005 ± 0.011 | 0.0255 ± 0.019 | 0.0325 ± 0.016 | 0.0275 ± 0.049 | -0.052 ± 0.034 | -0.022 ± 0.061 | -0.033 ± 0.042 | -0.0005 ± 0.03 | -0.053 ± 0.096 | 0.0595 ± 0.011 | 0.041 ± 0.051 | 0.0355 ± 0.043 | -0.0455 ± 0.066 | -0.0115 ± 0.016 | -0.011 ± 0.0057
